How the values were obtained:
diverse cell types = assay: Annexin V-FITC/PI apoptosis assay, elF2α plus MDM2 inhibition; type: cell-based
Description: TPC1, K1, HCT116, MCF7, SJSA, and HEK293FT cells were cultivated in RPMI (TPC1, SJSA), DMEM (K1, MCF7, HEK293FT), and McCoy's (HCT116) media (Gibco, Thermo Fisher Scientific) supplemented with 10% fetal bovine serum (Peak Serum) and 1% antibiotic-antimycotic mixture (Gibco). Cells were plated a day before the treatment and maintained in a humidified atmosphere with 5% of CO2 at 37° C. Both TPC1 and K1 lines were gifts from Dr. Rebecca Schweppe, University of Colorado Anschutz Medical Campus (CU-AMC). Cell line identity has been verified by short tandem repeats profiling at the Cell Technologies Shared Resource, CU-AMC. Colorectal cancer organoid cultures (CRC172) were obtained from the Enteroid Stem Cell Core facility at CU-AMC.
The fraction of apoptotic cells was determined by Annexin V-FITC/PI assay. Briefly, cells harvested by trypsinization were resuspended in Annexin-V binding buffer (10 mM HEPES pH 7.4, 140 mM NaCl, 2.5 mM CaCl2)). Approximately 2*10^5 cells were labeled with Annexin-V-FITC (Invitrogen) and PI (10 μg/ml, Millipore-Sigma) for 15 minutes in the dark before flow cytometric analysis (Accuri C6, Becton Dickinson). […] An aliquot of approximately 5*10^5 cells per sample was mixed with tetramethylrhodamine, ethyl ester, perchlorate (TMRE, Thermo Fisher, 100 nM final concentration) solution, incubated for 10 minutes in the dark, and analyzed by flow cytometer.

elF2α = assay: Western blot of elF2α phosphorylation; type: cell-based; conditions: 10 μM nutlin-3a, 25 μM GSK2830371, 20 μM nelfinavir; multiple cell lines
Description: (§1) Protein samples were prepared with cells washed twice with PBS and lysed in modified Laemmli buffer (Laemmli, 1970) (1% w/v SDS, 10% w/v glycerol, 100 mM Tris pH 7.2, protease (complete Mini, Roche) and phosphatase (PhosSTOP, Roche) inhibitors). Following a brief sonication (2.5W, 5 sec) and heat denaturation (90° C., 5 min), total protein concentration in whole cell lysates was measured by a BCA Protein Assay Kit (Pierce, Thermo Fisher Scientific). 20 μg of protein per sample was resolved by SDS-PAGE and transferred onto a 0.45 μm PVDF membrane (0.2 μm for ATF3 detection). Membranes were incubated in blocking buffer (5% fat-free milk in wash buffer—20 mM Tris pH 7.6, 150 mM NaCl, 0.2% Tween 20) for an hour at RT and o/n at 4° C. with the primary antibody diluted in a fresh blocking buffer. Next day membranes were washed three times for 10 min in the wash buffer, incubated with HRP-conjugated secondary antibody for an hour at RT, and washed again three times in the wash buffer. SuperSignal West Pico Plus Chemiluminescence Substrate (Pierce) was used for detection and digital images were acquired using an ImageQuant LAS 4000 (GE Healthcare Life Sciences).

caspase 3 = assay: Western blot of caspase 3 cleavage; type: cell-based; conditions: TPC1 cells; 20 μM nelfinavir, alone or with 10 μM nutlin-3a
Description: as §1, with “Following” for “Protein samples were prepared with cells washed twice with PBS and lysed in modified Laemmli buffer (Laemmli, 1970) (1% w/v SDS, 10% w/v glycerol, 100 mM Tris pH 7.2, protease (complete Mini, Roche) and phosphatase (PhosSTOP, Roche) inhibitors). Following”

ATF3 and ATF4 = assay: Western blot of ATF3 and ATF4 protein; type: cell-based; conditions: TPC1 cells; nelfinavir alone
Description: as §1

TPC1 and HCT116 = assay: Polysome profiling (polysome/monosome ratio); type: cell-based; conditions: 24 hours
Description: TPC1 and HCT116 were plated at 6*104/cm2 on 143 cm2 dishes, cultivated o/n, and treated accordingly. Ten minutes before the harvest cultivation media was supplemented with cycloheximide (CHX) at final concentration of 100 μg/ml. Next, cells were washed twice with ice-cold PBS with 100 μg/ml CHX and lysed in polysome preparation lysis buffer (20 mM HEPES pH 7.4, 15 mM MgCl2, 200 mM NaCl, 1% Triton X-100, 100 μg/ml CHX, 2 mM DTT, and 100U SuperaseIN). Lysates were cleared of debris by centrifugation at 20,000g, 4° C. for 10 minutes. Total nucleic acid content in lysates was measured by absorbance at 260 nm and used for sample concentration normalization. Next, 500 μl of the lysate was loaded on 10-60% sucrose gradients in SW41 tubes in lysis buffer lacking Triton X-100. These gradients were prepared using a BioComp system and chilled to 4° C. before use. Samples were ultracentrifuged at 36,000 rpm for 3 hours and 10 min, at 4° C., then samples were fractionated using a BioComp system, monitoring absorbance at 260 nm while collecting fractions of approximately 0.4 ml each.

HCT116 xenograft tumors = assay: HCT116 xenograft tumor model; type: in vivo; conditions: nude mice, 200 mg/kg nelfinavir and/or 200 mg/kg milademetan
Description: Athymic nude mice (NU/NU) weighting 20 to 30 grams and being 8-12 weeks of age (Charles River Labs) were housed in cages under standard conditions (22° C., 50% relative humidity, 12-h light/dark cycles) and provided with food and water ad libitum. Next, […] exponentially growing HCT116 cells resuspended in 100 μl Matrigel/PBS (5 mg/ml final) were injected subcutaneously into both flanks. Tumors grew for 10-14 days before treatment initiation. Experimental animals were given 200 mg/kg nelfinavir and/or 200 mg/kg Milademetan (Rain Therapeutics) by oral gavage once daily, 5 days a week. Tested compounds were prepared in a mixture of 2% Klucel (hydroxypropyl cellulose), 0.5% Tween 80, and 35% ethanol. Tumor volumes (v) were estimated daily, 5 days a week using caliper measurements and formula v=(I×w^2)/2, where I represents the greatest length of the tumor and w is tumor width in the perpendicular axis. Average volumes of the right and left flank tumors were used for plotting and calculations. Equal ratios of male and female mice were used in treatment groups (5 males and 5 females). All in vivo experiments were approved by the Institutional Animal Care and Use Committee at the CU-AMC (IACUC protocol 00432).
After indicated treatments, cells were washed with PBS, total RNA was extracted using Trizol substitute (38% Phenol, saturated, pH 4.3, 0.8 M guanidine thiocyanate, 0.4 M ammonium thiocyanate, 0.1 M sodium acetate, pH 5.0, 5% glycerol), and converted to cDNA with High-Capacity cDNA Reverse Transcription Kit (Thermo Fisher). Next, diluted cDNA was used in quantitative PCR reaction using SYBR Select Master Mix for CFX (Thermo Fisher). Detected mRNA levels were normalized to 18s rRNA values.
Tumors fixed in 4% formaldehyde were transferred to 70% ethanol and embedded in paraffin at the Pathology Shared Resource-Research Histology, University of Colorado Anschutz Medical Campus. Three tumors from each experimental group were sectioned, stained with DAPI and Ki67 primary antibody using Akoya Opal technology (Akoya Biosciences), and scanned at six representative regions with Vectra 3.0 (Akoya Biosciences) at the Human Immune Monitoring Shared Resource (University of Colorado Anschutz). Next, InForm image analysis software (Akoya Biosciences) was used for automated identification of nuclei based on the DAPI signal. Ki67 nuclear fluorescence was outputted for all nuclei.

Structure (SMILES): Cc1c(O)cccc1C(=O)N[C@@H](CSc1ccccc1)[C@H](O)CN1C[C@H]2CCCC[C@H]2C[C@H]1C(=O)NC(C)(C)C [nelfinavir]
- synergy with small molecule inhibitors of MDM2 to elicit p53-dependent cell death (diverse cell types): synergize with small molecule inhibitors of MDM2 to elicit p53-dependent cell death
- elF2α phosphorylation (elF2α): induced elF2α phosphorylation
- caspase 3 cleavage / activation (caspase 3): did not induced caspase 3 cleavage
- ATF4 protein stabilization (ATF3 and ATF4): stabilized ATF4
- polysome/monosome ratio (TPC1 and HCT116): decreased the polysome/monosome ratio
- animal survival (Kaplan Meier; humane endpoint tumor size>1000 mm^3) (HCT116 xenograft tumors; oral gavage): had to be sacrificed at the humane endpoint
- tumor growth (HCT116 xenograft tumors; oral gavage once daily, 5 days a week): Tumors continued to grow

From patent publication US20250127777A1, “DUAL INHIBITION OF MDM2 AND EIF2-ALPHA INDUCES CELL DEATH IN MULTIPLE CANCER CELL TYPES” (The Regents of the University of Colorado, A Body Corporate, priority 2022, published 2025)
